# System: cancer cell line MDA-MB-468
# Assay: Combination index with known cancer drugs against proliferation (Calcusyn software)
# Type: cell-based
# In short: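 MTT proliferation assay: cells exposed continuously to drug for 96 h at 37° C, 5% CO2, screening range 1-200 μg/ml, then MTT 4 h, DMSO solubilisation, absorbance 570 nm. Synergy with known drugs given as combination index (Calcusyn).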
structure (smiles),measurement,setting,value
"CCCCC/C=C\C/C=C\C/C=C\CCCCCOC(=O)c1ccc2c(c1O)C(=O)OC(C)C2 (racemic) [ALM-43, γ-Linolenyl Ester]",Combination Index,"Cisplatin 1 × 10^−2 mol/L, ALM compound 0.1 μg/ml",0.063
same,Combination Index,"Cisplatin 1 × 10^−2 mol/L, ALM compound 0.5 μg/ml",0.003
same,Combination Index,"Cisplatin 1 × 10^−2 mol/L, ALM compound 1.0 μg/ml",0.007
same,Combination Index,"Cisplatin 1 × 10^−2 mol/L, ALM compound 5.0 μg/ml",0.038
same,Combination Index,"Cisplatin 1 × 10^−3 mol/L, ALM compound 0.1 μg/ml",No
same,Combination Index,"Cisplatin 1 × 10^−3 mol/L, ALM compound 0.5 μg/ml",No
same,Combination Index,"Cisplatin 1 × 10^−3 mol/L, ALM compound 1.0 μg/ml",No
same,Combination Index,"Cisplatin 1 × 10^−3 mol/L, ALM compound 5.0 μg/ml",No
same,Combination Index,"Cisplatin 1 × 10^−4 mol/L, ALM compound 0.1 μg/ml",No
same,Combination Index,"Cisplatin 1 × 10^−4 mol/L, ALM compound 0.5 μg/ml",No
same,Combination Index,"Cisplatin 1 × 10^−4 mol/L, ALM compound 1.0 μg/ml",No
same,Combination Index,"Cisplatin 1 × 10^−4 mol/L, ALM compound 5.0 μg/ml",No
same,Combination Index,"Cisplatin 1 × 10^−5 mol/L, ALM compound 0.1 μg/ml",No
same,Combination Index,"Cisplatin 1 × 10^−5 mol/L, ALM compound 0.5 μg/ml",No
same,Combination Index,"Cisplatin 1 × 10^−5 mol/L, ALM compound 1.0 μg/ml",No
same,Combination Index,"Cisplatin 1 × 10^−5 mol/L, ALM compound 5.0 μg/ml",No
same,Combination Index,"Cisplatin 1 × 10^−6 mol/L, ALM compound 0.1 μg/ml",No
same,Combination Index,"Cisplatin 1 × 10^−6 mol/L, ALM compound 0.5 μg/ml",No
same,Combination Index,"Cisplatin 1 × 10^−6 mol/L, ALM compound 1.0 μg/ml",No
same,Combination Index,"Cisplatin 1 × 10^−6 mol/L, ALM compound 5.0 μg/ml",No
same,Combination Index,"Cisplatin 1 × 10^−7 mol/L, ALM compound 0.1 μg/ml",0.636
same,Combination Index,"Cisplatin 1 × 10^−7 mol/L, ALM compound 0.5 μg/ml",0.612
same,Combination Index,"Cisplatin 1 × 10^−7 mol/L, ALM compound 1.0 μg/ml",No
same,Combination Index,"Cisplatin 1 × 10^−7 mol/L, ALM compound 5.0 μg/ml",No
same,Combination Index,"Cisplatin 1 × 10^−8 mol/L, ALM compound 0.1 μg/ml",0.199
same,Combination Index,"Cisplatin 1 × 10^−8 mol/L, ALM compound 0.5 μg/ml",No
same,Combination Index,"Cisplatin 1 × 10^−8 mol/L, ALM compound 1.0 μg/ml",No
same,Combination Index,"Cisplatin 1 × 10^−8 mol/L, ALM compound 5.0 μg/ml",No
same,Combination Index,"Cisplatin 1 × 10^−9 mol/L, ALM compound 0.1 μg/ml",0.054
same,Combination Index,"Cisplatin 1 × 10^−9 mol/L, ALM compound 0.5 μg/ml",0.536
same,Combination Index,"Cisplatin 1 × 10^−9 mol/L, ALM compound 1.0 μg/ml",No
same,Combination Index,"Cisplatin 1 × 10^−9 mol/L, ALM compound 5.0 μg/ml",No
same,Combination Index,"Doxorubicin 1 × 10^−4 mol/L, ALM compound 0.1 μg/ml",No
same,Combination Index,"Doxorubicin 1 × 10^−4 mol/L, ALM compound 0.5 μg/ml",No
same,Combination Index,"Doxorubicin 1 × 10^−4 mol/L, ALM compound 1.0 μg/ml",No
same,Combination Index,"Doxorubicin 1 × 10^−4 mol/L, ALM compound 5.0 μg/ml",No
same,Combination Index,"Doxorubicin 1 × 10^−5 mol/L, ALM compound 0.1 μg/ml",0.385
same,Combination Index,"Doxorubicin 1 × 10^−5 mol/L, ALM compound 0.5 μg/ml",0.700
same,Combination Index,"Doxorubicin 1 × 10^−5 mol/L, ALM compound 1.0 μg/ml",0.278
same,Combination Index,"Doxorubicin 1 × 10^−5 mol/L, ALM compound 5.0 μg/ml",0.457
same,Combination Index,"Etoposide 1 × 10^−4 mol/L, ALM compound 0.1 μg/ml",0.399
same,Combination Index,"Etoposide 1 × 10^−4 mol/L, ALM compound 0.5 μg/ml",0.289
same,Combination Index,"Etoposide 1 × 10^−4 mol/L, ALM compound 1.0 μg/ml",0.418
same,Combination Index,"Etoposide 1 × 10^−4 mol/L, ALM compound 5.0 μg/ml",0.474
same,Combination Index,"Etoposide 1 × 10^−5 mol/L, ALM compound 0.1 μg/ml",No
same,Combination Index,"Etoposide 1 × 10^−5 mol/L, ALM compound 0.5 μg/ml",No
same,Combination Index,"Etoposide 1 × 10^−5 mol/L, ALM compound 1.0 μg/ml",No
same,Combination Index,"Etoposide 1 × 10^−5 mol/L, ALM compound 5.0 μg/ml",No
same,Combination Index,"Etoposide 1 × 10^−6 mol/L, ALM compound 0.1 μg/ml",No
same,Combination Index,"Etoposide 1 × 10^−6 mol/L, ALM compound 0.5 μg/ml",0.865
same,Combination Index,"Etoposide 1 × 10^−6 mol/L, ALM compound 1.0 μg/ml",No
same,Combination Index,"Etoposide 1 × 10^−6 mol/L, ALM compound 5.0 μg/ml",No
same,Combination Index,"Etoposide 1 × 10^−7 mol/L, ALM compound 0.1 μg/ml",0.473
same,Combination Index,"Etoposide 1 × 10^−7 mol/L, ALM compound 0.5 μg/ml",0.305
same,Combination Index,"Etoposide 1 × 10^−7 mol/L, ALM compound 1.0 μg/ml",No
same,Combination Index,"Etoposide 1 × 10^−7 mol/L, ALM compound 5.0 μg/ml",No
same,Combination Index,"Etoposide 1 × 10^−8 mol/L, ALM compound 0.1 μg/ml",0.181
same,Combination Index,"Etoposide 1 × 10^−8 mol/L, ALM compound 0.5 μg/ml",0.137
same,Combination Index,"Etoposide 1 × 10^−8 mol/L, ALM compound 1.0 μg/ml",No
same,Combination Index,"Etoposide 1 × 10^−8 mol/L, ALM compound 5.0 μg/ml",No
same,Combination Index,"Etoposide 1 × 10^−9 mol/L, ALM compound 0.1 μg/ml",0.090
same,Combination Index,"Etoposide 1 × 10^−9 mol/L, ALM compound 0.5 μg/ml",0.319
same,Combination Index,"Etoposide 1 × 10^−9 mol/L, ALM compound 1.0 μg/ml",No
same,Combination Index,"Etoposide 1 × 10^−9 mol/L, ALM compound 5.0 μg/ml",No
same,Combination Index,"Etoposide 1 × 10^−10 mol/L, ALM compound 0.1 μg/ml",0.083
same,Combination Index,"Etoposide 1 × 10^−10 mol/L, ALM compound 0.5 μg/ml",0.515
same,Combination Index,"Etoposide 1 × 10^−10 mol/L, ALM compound 1.0 μg/ml",No
same,Combination Index,"Etoposide 1 × 10^−10 mol/L, ALM compound 5.0 μg/ml",No
same,Combination Index,"Irinotecan 1 × 10^−3 mol/L, ALM compound 0.1 μg/ml",0.088
same,Combination Index,"Irinotecan 1 × 10^−3 mol/L, ALM compound 0.5 μg/ml",0.230
same,Combination Index,"Irinotecan 1 × 10^−3 mol/L, ALM compound 1.0 μg/ml",0.438
same,Combination Index,"Irinotecan 1 × 10^−3 mol/L, ALM compound 5.0 μg/ml",0.307
same,Combination Index,"Irinotecan 1 × 10^−4 mol/L, ALM compound 0.1 μg/ml",0.019
same,Combination Index,"Irinotecan 1 × 10^−4 mol/L, ALM compound 0.5 μg/ml",0.005
same,Combination Index,"Irinotecan 1 × 10^−4 mol/L, ALM compound 1.0 μg/ml",0.040
same,Combination Index,"Irinotecan 1 × 10^−4 mol/L, ALM compound 5.0 μg/ml",0.113
same,Combination Index,"Irinotecan 1 × 10^−5 mol/L, ALM compound 0.1 μg/ml",No
same,Combination Index,"Irinotecan 1 × 10^−5 mol/L, ALM compound 0.5 μg/ml",No
same,Combination Index,"Irinotecan 1 × 10^−5 mol/L, ALM compound 1.0 μg/ml",No
same,Combination Index,"Irinotecan 1 × 10^−5 mol/L, ALM compound 5.0 μg/ml",No
same,Combination Index,"Irinotecan 1 × 10^−6 mol/L, ALM compound 0.1 μg/ml",No
same,Combination Index,"Irinotecan 1 × 10^−6 mol/L, ALM compound 0.5 μg/ml",No
same,Combination Index,"Irinotecan 1 × 10^−6 mol/L, ALM compound 1.0 μg/ml",No
same,Combination Index,"Irinotecan 1 × 10^−6 mol/L, ALM compound 5.0 μg/ml",No
same,Combination Index,"Irinotecan 1 × 10^−7 mol/L, ALM compound 0.1 μg/ml",No
same,Combination Index,"Irinotecan 1 × 10^−7 mol/L, ALM compound 0.5 μg/ml",No
same,Combination Index,"Irinotecan 1 × 10^−7 mol/L, ALM compound 1.0 μg/ml",No
same,Combination Index,"Irinotecan 1 × 10^−7 mol/L, ALM compound 5.0 μg/ml",No
same,Combination Index,"Irinotecan 1 × 10^−8 mol/L, ALM compound 0.1 μg/ml",0.514
same,Combination Index,"Irinotecan 1 × 10^−8 mol/L, ALM compound 0.5 μg/ml",0.233
same,Combination Index,"Irinotecan 1 × 10^−8 mol/L, ALM compound 1.0 μg/ml",No
same,Combination Index,"Irinotecan 1 × 10^−8 mol/L, ALM compound 5.0 μg/ml",No
same,Combination Index,"Irinotecan 1 × 10^−9 mol/L, ALM compound 0.1 μg/ml",0.701
same,Combination Index,"Irinotecan 1 × 10^−9 mol/L, ALM compound 0.5 μg/ml",0.628
same,Combination Index,"Irinotecan 1 × 10^−9 mol/L, ALM compound 1.0 μg/ml",No
same,Combination Index,"Irinotecan 1 × 10^−9 mol/L, ALM compound 5.0 μg/ml",No
same,Combination Index,"Irinotecan 1 × 10^−11 mol/L, ALM compound 0.1 μg/ml",0.172
same,Combination Index,"Irinotecan 1 × 10^−11 mol/L, ALM compound 0.5 μg/ml",0.484
same,Combination Index,"Irinotecan 1 × 10^−11 mol/L, ALM compound 1.0 μg/ml",No
same,Combination Index,"Irinotecan 1 × 10^−11 mol/L, ALM compound 5.0 μg/ml",No

# Reference: US20090047221A1 (NIPRI LIMITED, priority 2004, published 2009)
